Laboratory results: US8956677B2, “High-potency sweetener composition with glucosamine and compositions sweetened therewith” (The Coca-Cola Company, priority 2005, dated 2015)

Test: Sensory evaluation of sweetness linger and sugar-like taste by a panel of experts
Type: in vivo
Design: key: 0=no sweetness linger; 1=very slight sweetness linger; 2=slight sweetness linger; 3=moderate sweetness linger; 4=moderately high sweetness linger; 5=high sweetness linger
Procedure: As used herein, the phrases “sugar-like characteristic,” “sugar-like taste,” “sugar-like sweet,” “sugary,” and “sugar-like” are synonymous. […] These characteristics are dimensions in which the taste of sucrose is different from the tastes of natural and synthetic high-potency sweeteners. Whether or not a characteristic is more sugar-like is determined by expert sensory panel assessments of sugar and compositions comprising at least one natural and/or synthetic high-potency sweetener, both with and without a sweet taste improving composition. Such assessments quantify similarities of the characteristics of compositions comprising at least one natural and/or synthetic high-potency sweetener, both with and without a sweet taste improving composition, with those comprising sugar. Suitable procedures for determining whether a composition has a more sugar-like taste are well known in the art.
In a particular embodiment, a panel of assessors is used to measure the reduction of sweetness linger. Briefly described, a panel of assessors (generally 8 to 12 individuals) is trained to evaluate sweetness perception and measure sweetness at several time points from when the sample is initially taken into the mouth until 3 minutes after it has been expectorated. […] A decrease in score for a time point measured after the sample has cleared the mouth indicates there has been a reduction in sweetness perception.
The panel of assessors may be trained using procedures well known to those of ordinary skill in the art. In a particular embodiment, the panel of assessors may be trained using the Spectrum™ Descriptive Analysis Method (Meilgaard et al, Sensory Evaluation Techniques 3rd edition, Chapter 11). […]
Sensory evaluation of the samples prepared in Example Set G was carried out under the following protocol, similar to that described hereinabove. […] Immediately upon sensing maximal sweetness, the sample was expectorated, the mouth was rinsed with water and the rate of sweetness decay (“Sweetness Linger”) was measured, where attention was focused on the sweetness 3-4 min after the water rinse. […]

rebaudioside A
5: sweetness linger (400 ppm REBA in citric acid/potassium citrate composition equivalent to that in a diet lemon-lime beverage, with or without additive, scale 0-5, sweetness 3-4 min after water rinse) | sweetness linger (500 ppm REBA in carbon-treated water, phosphoric acid (75%) to pH 2.4-2.5, with or without additive, scale 0-5) | Sweetness Linger rating defined for controls (scale anchors defined by the protocol, REBA control sample at 500 ppm)
